Test results as given in paper PMC3108484 (Frontiers in Pharmacology, 2011).
“And” between values parts separate entries of the source, which are not always exact repeats. Identical values can stand only once.

Key:
5-HT4 receptor = 5-HT4 receptor (Cavia porcellus, UniProt O70528); assay: Guinea pig colonic longitudinal muscle/myenteric plexus; details: isolated tissue, % of primed 5-HT (0.3 μM) maximum
conscious guinea pigs = assay: Guinea pig colonic transit of carmine red dye; format: in vivo; details: s.c., maximum effect already achieved
[1] = system: canine antrum, duodenum, and jejunum; assay: Dog gastrointestinal contractility; format: in vivo; details: oral, conscious fasted dogs
Rat Ca2+ channel (N) = Rat Ca2+ channel (N) (Rattus norvegicus, UniProt Q02294); assay: biochemical; format: binding
[2] = both, human, in vivo, 0.5 mg
Rat P2Y = assay: Radioligand binding: Rat P2Y; details: [35S]-dATP αS 10 nM
Human D1 = Human D1 (Homo sapiens, UniProt P21728); assay: Radioligand binding: Human D1
Human M3 = Human M3 (Homo sapiens, UniProt P20309); assay: Radioligand binding: Human M3
Human M5 = Human M5 (Homo sapiens, UniProt P08912); assay: Radioligand binding: Human M5
Human β1 = Human β1 (Homo sapiens, UniProt P08588); assay: Radioligand binding: Human β1
Human β2 = Human β2 (Homo sapiens, UniProt P07550); assay: Radioligand binding: Human β2
Human COX1 = Human COX1 (Homo sapiens, UniProt P23219); assay: Enzyme inhibition: Human COX1
Chain of Human COX1 (P23219 24-599): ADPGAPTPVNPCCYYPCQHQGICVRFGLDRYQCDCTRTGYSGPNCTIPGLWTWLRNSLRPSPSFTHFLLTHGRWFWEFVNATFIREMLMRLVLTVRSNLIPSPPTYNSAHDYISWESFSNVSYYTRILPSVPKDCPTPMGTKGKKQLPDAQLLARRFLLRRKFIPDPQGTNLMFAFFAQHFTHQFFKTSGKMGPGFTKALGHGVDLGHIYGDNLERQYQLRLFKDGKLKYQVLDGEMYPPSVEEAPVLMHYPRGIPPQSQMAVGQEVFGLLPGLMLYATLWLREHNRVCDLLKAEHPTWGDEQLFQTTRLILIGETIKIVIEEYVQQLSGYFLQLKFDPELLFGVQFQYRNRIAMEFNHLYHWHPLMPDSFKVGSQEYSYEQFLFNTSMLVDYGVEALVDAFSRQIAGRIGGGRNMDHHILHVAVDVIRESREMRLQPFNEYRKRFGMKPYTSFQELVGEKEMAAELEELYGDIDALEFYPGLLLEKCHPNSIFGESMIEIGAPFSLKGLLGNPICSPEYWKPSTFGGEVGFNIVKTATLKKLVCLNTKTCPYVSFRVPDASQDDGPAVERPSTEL

Human COX2 = Human COX2 (Homo sapiens, UniProt P35354); assay: Enzyme inhibition: Human COX2
Chain of Human COX2 (P35354 18-604): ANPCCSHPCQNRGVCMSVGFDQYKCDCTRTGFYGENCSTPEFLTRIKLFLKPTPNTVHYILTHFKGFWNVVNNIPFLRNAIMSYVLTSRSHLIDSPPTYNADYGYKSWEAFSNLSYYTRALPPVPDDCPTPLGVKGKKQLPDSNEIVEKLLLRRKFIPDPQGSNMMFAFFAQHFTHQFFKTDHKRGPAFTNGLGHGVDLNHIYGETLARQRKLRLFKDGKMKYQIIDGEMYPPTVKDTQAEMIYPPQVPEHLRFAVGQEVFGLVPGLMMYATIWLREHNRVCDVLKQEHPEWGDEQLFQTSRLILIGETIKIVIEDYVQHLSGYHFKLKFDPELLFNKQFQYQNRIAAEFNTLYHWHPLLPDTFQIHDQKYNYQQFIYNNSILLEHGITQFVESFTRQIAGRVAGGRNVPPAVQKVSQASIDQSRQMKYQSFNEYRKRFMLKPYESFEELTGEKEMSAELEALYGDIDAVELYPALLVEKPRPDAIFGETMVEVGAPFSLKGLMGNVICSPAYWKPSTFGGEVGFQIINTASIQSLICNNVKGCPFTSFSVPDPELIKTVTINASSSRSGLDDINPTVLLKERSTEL

Human A2A = Human A2A (Homo sapiens, UniProt P29274); assay: Radioligand binding: Human A2A
Chain of Human A2A (P29274 whole entry): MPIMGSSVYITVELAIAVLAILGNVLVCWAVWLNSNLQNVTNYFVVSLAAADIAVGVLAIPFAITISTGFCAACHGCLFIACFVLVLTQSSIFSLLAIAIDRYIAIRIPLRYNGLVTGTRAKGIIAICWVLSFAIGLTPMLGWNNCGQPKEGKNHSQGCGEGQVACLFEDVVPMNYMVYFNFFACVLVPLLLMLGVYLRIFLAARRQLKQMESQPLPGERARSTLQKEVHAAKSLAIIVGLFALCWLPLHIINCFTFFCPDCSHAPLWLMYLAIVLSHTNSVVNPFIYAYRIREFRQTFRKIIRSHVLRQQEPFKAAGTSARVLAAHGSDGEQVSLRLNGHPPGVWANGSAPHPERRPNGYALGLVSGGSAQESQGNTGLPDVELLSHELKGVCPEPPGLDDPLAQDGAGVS

Human D2S = Human D2S (Homo sapiens, UniProt P14416); assay: Radioligand binding: Human D2S
Human AT1 = Human AT1 (Homo sapiens, UniProt P30556); assay: Radioligand binding: Human AT1
Chain of Human AT1 (P30556 whole entry): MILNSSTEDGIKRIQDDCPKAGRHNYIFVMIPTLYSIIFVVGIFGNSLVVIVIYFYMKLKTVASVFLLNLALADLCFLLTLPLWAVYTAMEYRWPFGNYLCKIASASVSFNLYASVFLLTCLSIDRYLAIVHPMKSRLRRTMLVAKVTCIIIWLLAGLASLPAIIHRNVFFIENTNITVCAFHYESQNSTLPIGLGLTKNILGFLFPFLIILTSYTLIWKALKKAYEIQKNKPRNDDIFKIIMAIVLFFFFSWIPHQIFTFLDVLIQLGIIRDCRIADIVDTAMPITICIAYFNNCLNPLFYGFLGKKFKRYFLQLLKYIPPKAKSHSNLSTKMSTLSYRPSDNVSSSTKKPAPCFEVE

Human ETB = Human ETB (Homo sapiens, UniProt P24530); assay: Radioligand binding: Human ETB
Chain of Human ETB (P24530 27-442): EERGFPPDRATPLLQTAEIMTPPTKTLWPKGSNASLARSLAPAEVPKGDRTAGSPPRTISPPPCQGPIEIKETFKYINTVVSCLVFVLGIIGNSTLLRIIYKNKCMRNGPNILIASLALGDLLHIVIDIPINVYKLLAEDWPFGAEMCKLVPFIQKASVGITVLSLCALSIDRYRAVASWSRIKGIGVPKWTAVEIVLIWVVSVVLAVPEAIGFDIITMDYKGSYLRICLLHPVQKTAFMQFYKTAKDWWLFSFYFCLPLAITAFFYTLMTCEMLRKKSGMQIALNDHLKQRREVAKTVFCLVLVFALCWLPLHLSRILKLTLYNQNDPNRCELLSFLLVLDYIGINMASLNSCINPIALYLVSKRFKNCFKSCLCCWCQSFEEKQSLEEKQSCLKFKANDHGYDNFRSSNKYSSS

Human NK3 = Human NK3 (Homo sapiens, UniProt P29371); assay: Radioligand binding: Human NK3
Chain of Human NK3 (P29371 whole entry): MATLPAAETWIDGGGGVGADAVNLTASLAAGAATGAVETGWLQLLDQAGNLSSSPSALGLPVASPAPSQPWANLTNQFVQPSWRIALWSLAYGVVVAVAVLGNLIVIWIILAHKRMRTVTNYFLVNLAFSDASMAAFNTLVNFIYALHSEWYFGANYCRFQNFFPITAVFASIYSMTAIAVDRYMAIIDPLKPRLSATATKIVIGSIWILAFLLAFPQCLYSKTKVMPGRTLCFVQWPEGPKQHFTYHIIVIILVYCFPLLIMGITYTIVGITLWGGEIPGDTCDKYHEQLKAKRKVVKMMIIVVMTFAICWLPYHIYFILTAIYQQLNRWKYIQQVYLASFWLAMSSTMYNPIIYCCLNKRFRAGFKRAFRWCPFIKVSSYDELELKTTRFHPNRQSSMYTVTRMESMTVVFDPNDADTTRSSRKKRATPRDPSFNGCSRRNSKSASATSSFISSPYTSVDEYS

Human V1a = Human V1a (Homo sapiens, UniProt P37288); assay: Radioligand binding: Human V1a
Chain of Human V1a (P37288 whole entry): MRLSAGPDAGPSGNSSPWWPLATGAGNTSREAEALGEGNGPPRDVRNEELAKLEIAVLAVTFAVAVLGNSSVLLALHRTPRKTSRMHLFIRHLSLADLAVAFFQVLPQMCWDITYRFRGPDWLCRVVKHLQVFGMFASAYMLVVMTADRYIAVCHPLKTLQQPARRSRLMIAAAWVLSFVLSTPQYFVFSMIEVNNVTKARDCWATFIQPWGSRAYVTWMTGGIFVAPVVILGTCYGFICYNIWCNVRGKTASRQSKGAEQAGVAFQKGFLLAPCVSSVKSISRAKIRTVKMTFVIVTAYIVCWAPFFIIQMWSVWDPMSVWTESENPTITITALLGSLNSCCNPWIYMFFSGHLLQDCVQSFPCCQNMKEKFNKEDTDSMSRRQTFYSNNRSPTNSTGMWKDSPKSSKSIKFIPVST

Human CB1 = Human CB1 (Homo sapiens, UniProt P21554); assay: Radioligand binding: Human CB1
Rat kainate = assay: Radioligand binding: Rat kainate; details: [3H]-kainic acid 5 nM
Human 5-HT1A = Human 5-HT1A (Homo sapiens, UniProt P08908); assay: Radioligand binding: Human 5-HT1A
Guinea pig H1 = Guinea pig H1 (Cavia porcellus, UniProt P31389); assay: Radioligand binding: Guinea pig H1
SK+Ca channel = assay: Radioligand binding: SK+Ca channel; details: [125I]-apamin 0.004 nM
[3] = molecular target: Rat α4β2 nAChR (α-BGTX-insensitive) (Rattus norvegicus, UniProt P09483+P12390); assay: Radioligand binding: Rat α4β2 nAChR
Chain of Rat α4β2 nAChR (α-BGTX-insensitive) (P09483 31-630): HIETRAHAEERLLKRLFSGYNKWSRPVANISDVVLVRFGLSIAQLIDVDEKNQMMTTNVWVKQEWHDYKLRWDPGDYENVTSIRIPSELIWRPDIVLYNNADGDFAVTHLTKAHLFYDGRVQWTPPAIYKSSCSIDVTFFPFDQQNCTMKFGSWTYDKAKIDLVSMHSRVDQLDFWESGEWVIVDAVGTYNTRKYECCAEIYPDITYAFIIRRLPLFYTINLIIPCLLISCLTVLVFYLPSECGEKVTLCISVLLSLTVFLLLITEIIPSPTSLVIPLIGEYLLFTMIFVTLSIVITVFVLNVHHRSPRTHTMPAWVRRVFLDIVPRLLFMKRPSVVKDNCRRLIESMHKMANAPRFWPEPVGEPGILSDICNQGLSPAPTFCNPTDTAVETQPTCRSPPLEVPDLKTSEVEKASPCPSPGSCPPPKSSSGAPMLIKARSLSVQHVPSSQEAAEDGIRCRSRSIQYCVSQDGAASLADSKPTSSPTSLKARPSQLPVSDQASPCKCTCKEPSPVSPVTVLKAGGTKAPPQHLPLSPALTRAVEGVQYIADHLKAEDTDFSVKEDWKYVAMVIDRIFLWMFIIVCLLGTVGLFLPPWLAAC
Chain of Rat α4β2 nAChR (α-BGTX-insensitive) (P12390 25-500): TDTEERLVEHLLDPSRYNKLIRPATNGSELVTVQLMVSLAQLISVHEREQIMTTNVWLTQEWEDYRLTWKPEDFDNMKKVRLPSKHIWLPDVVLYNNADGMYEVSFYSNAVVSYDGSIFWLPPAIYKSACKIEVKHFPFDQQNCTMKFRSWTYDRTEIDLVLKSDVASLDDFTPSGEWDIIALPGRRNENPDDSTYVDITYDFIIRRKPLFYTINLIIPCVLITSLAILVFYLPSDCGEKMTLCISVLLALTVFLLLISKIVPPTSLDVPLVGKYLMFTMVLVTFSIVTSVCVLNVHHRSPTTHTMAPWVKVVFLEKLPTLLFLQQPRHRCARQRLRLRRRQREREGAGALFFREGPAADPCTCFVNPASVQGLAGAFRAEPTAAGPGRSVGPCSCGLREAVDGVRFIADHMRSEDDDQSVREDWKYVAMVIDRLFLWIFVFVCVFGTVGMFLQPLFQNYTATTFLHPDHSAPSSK

Human VPAC2 (VIP2) = Human VPAC2 (VIP2) (Homo sapiens, UniProt P41587); assay: Radioligand binding: Human VPAC2
Rat adenylyl cyclase = assay: Enzyme inhibition: Rat adenylyl cyclase; details: ATP 500 μM, TD-8954 1 μM
Rat α1 (non-selective) = assay: Radioligand binding: Rat α1; details: [3H]-prazosin 0.25 nM
Rat α2 (non-selective) = assay: Radioligand binding: Rat α2; details: [3H]-RX 821002 0.5 nM
Human 5-HT transporter = Human 5-HT transporter (Homo sapiens, UniProt P31645); assay: Radioligand binding: Human 5-HT transporter
[4] = molecular target: Human acetylcholinesterase (Homo sapiens, UniProt P22303); assay: Enzyme inhibition: Human acetylcholinesterase
[5] = molecular target: Rat galanin (non-selective); assay: Radioligand binding: Rat galanin; details: [125I]-galanin 0.05 nM
Guinea pig κ kappa = Guinea pig κ kappa (Cavia porcellus, UniProt P41144); assay: Radioligand binding: Guinea pig κ opiate receptor
[6] = molecular target: Rat Ca2+ channel (L, DHP site); assay: Radioligand binding: Rat Ca2+ channel; details: [3H]-(+)PN 200-110 0.04 nM
[7] = read-out: % Inhibition of specific binding (1 μM)
[8] = read-out: % Inhibition of control (1 μM)

Chain of 5-HT4 receptor (O70528 whole entry): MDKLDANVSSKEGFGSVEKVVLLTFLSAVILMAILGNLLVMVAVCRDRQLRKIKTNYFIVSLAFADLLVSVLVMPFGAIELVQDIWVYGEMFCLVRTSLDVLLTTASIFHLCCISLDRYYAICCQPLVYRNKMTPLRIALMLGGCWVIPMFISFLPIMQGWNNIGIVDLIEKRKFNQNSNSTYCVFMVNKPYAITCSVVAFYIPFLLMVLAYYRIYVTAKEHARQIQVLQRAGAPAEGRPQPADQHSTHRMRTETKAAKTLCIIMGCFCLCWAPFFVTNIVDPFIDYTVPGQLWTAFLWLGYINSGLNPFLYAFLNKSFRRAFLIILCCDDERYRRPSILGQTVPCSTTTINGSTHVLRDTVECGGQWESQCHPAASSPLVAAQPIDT

## COC(=O)N1CCC(CN2CCC(CNC(=O)c3cccc4[nH]c(C(C)C)nc34)CC2)CC1 [TD-8954, 4-(4-{[(2-isopropyl-1H-benzoimidazole-4-carbonyl)amino]methyl}-piperidin-1-ylmethyl)piperidine-1-carboxylic acid methyl ester]
5-HT4 receptor
  Guinea pig colonic LMMP contractile activity IA (mean % 5-HT max ± SEM): 55 % 5-HT max and 55 ± 2 % 5-HT max
Conscious guinea pigs
  lowest dose tested, significantly active on colonic transit: 0.03 mg/kg
[1]
  onset of contractile activity after dosing: ≤ 10 min
[1]; TD-8954 0.01 and 0.03 mg/kg, tegaserod 0.1 and 0.3 mg/kg
  effect on contractility in the antrum, duodenum, and jejunum: increases in contractility
Rat Ca2+ channel (N)
  Ki: > 1000 nM
[2]
  free plasma AUC0–24: 36.2 nM/h
  free plasma Cmax: 3.4 nM/h
Rat P2Y
  pKi: <6
Rat P2Y; TD-8954 1 μM
  % Inhibition of specific binding (1 μM): 8%
Human D1
  Ki: > 1000 nM
Human D1; [7]
  inhibition at 1 µM: -2%
Human M3
  Ki: > 10000 nM
Human M5
  Ki: > 10000 nM
Human β1
  Ki: > 1000 nM
Human β2
  Ki: > 1000 nM
Human COX1
  IC50: > 1000 nM
Human COX1; [8]
  inhibition at 1 µM: 2%
Human COX2
  IC50: > 1000 nM
Human COX2; [8]
  inhibition at 1 µM: -36%
Human A2A
  Ki: > 1000 nM
Human A2A; Human A2A, [3H]-CGS 21680 6 nM, TD-8954 1 μM
  % Inhibition of specific binding (1 μM): 16%
Human D2S
  Ki: > 1000 nM
Human D2S; [7]
  inhibition at 1 µM: 6%
Human AT1
  Ki: > 1000 nM
Human AT1; [7]
  inhibition at 1 µM: 2%
Human ETB
  Ki: > 1000 nM
Human ETB; [7]
  inhibition at 1 µM: 5%
Human NK3
  Ki: > 1000 nM
Human NK3; [7]
  inhibition at 1 µM: -3%
Human V1a
  Ki: > 1000 nM
Human V1a; [7]
  inhibition at 1 µM: 1%
Human CB1
  Ki: > 1000 nM
Rat kainate
  pKi: <6
Rat kainate; TD-8954 1 μM
  % Inhibition of specific binding (1 μM): −6%
Human 5-HT1A
  Ki: > 1000 nM
Guinea pig H1
  Ki: > 1000 nM
SK+Ca channel
  pKi: <6
SK+Ca channel; TD-8954 1 μM
  % Inhibition of specific binding (1 μM): −4%
[3]
  Ki: > 1000 nM
[3]; [7]
  inhibition at 1 µM: -2%
Human VPAC2 (VIP2)
  Ki: > 1000 nM
Human VPAC2 (VIP2); [7]
  inhibition at 1 µM: -19%
Rat adenylyl cyclase
  % Inhibition of control (1 μM): 5%
Rat α1 (non-selective)
  pKi: <6
Rat α1 (non-selective); TD-8954 1 μM
  % Inhibition of specific binding (1 μM): −1%
Rat α2 (non-selective)
  pKi: <6
Human 5-HT transporter
  Ki: > 1000 nM
[4]
  IC50: > 1000 nM
[4]; [8]
  inhibition at 1 µM: 2%
[5]
  pKi: <6
[5]; TD-8954 1 μM
  % Inhibition of specific binding (1 μM): 1%
Guinea pig κ kappa
  Ki: > 1000 nM
Guinea pig κ kappa; [7]
  inhibition at 1 µM: 22%
[6]
  pKi: <6
